{"source": "paper PMC12254266", "about": "“Multicolored sequential resonance energy transfer for detection of simultaneous ligand binding at G protein-coupled receptors” (Nature Communications, 2025)", "key": {"[1]": {"molecular_target": "T1, Nluc-FFA1 (Homo sapiens, UniProt O14842)", "T1 construct": "expressed in transfected cells", "T1 sequence (O14842 whole entry)": "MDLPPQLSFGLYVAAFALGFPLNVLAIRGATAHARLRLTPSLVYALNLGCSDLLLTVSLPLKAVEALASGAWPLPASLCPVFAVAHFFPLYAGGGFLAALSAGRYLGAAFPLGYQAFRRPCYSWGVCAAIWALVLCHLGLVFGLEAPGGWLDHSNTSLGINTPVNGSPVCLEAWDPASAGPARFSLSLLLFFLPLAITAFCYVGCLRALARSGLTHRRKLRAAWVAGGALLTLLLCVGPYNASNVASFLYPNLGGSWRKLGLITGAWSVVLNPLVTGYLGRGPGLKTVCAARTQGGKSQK", "assay": "NanoBRET binding (saturation, competition, kinetics) at N terminal Nluc tagged FFA1", "conditions": "technical duplicates; for Specific BRET (690/450)%: Figure 4Ci; for Specific BRET (540/450)%: Figure 4Cii", "experimental": "Nluc-FFA1 or FFA1-Nluc Flp-In T-REx 293 cells were plated at 50,000 cells per well in poly-D-lysine coated white 96-well plates. Cells were cultured for 24 h in the plate before medium was replaced with medium containing 100 ng/mL of doxycycline to induce receptor expression. After culturing for a further 24 h, medium was removed, cells were washed with HBSS and incubated in HBSS for 30 min. To start the assay, NanoGlo substrate (Promega, N1110) was added to the cells at a 1:800 final dilution and incubated for 10 min at 37 °C. For endpoint assays, including both saturation and competition binding, test ligands were then added, including both fluorescent and unlabelled competing ligands as indicated, and plates incubated for a further 5 min at 37 °C. NanoBRET was then quantified in a CLARIOstar microplate reader (BMG Labtech) by measuring luminescent emission with the monochrometer set for the Nluc donor at 450–60 nm, and acceptor luminescent emission 540–60 nm (NBD), 600–80 nm (Cy3.5) or 690–100 nm (SulfoCy5), depending on which fluorophore was being tested. The acceptor/donor BRET ratio was then taken as a measure of fluorophore binding. For kinetic on then off NanoBRET experiments plates were washed the same way and substrate was added to the same concentration. However, 10 min after substrate was added plates were inserted into the CLARIOstar microplate reader set to 25 °C to take repeated measurements of luminescent emission for both the donor and the acceptor fluorophore being used. After 5 min of background measurements, the indicated concentration of fluorescent ligand was added using the plate reader injector and luminescent emission was monitored for ~10 min before the reader was paused to manually add a high concentration of appropriate competing ligand to initiate dissociation. The plate was returned to the reader and luminescence measurements were continued for a further 30 min to monitor dissociation of the fluorescent ligand. For kinetic experiments using multiple concentrations of fluorescent ligand, cells were placed in the plate reader immediately after the addition of Nano-Glo substrate and luminescent measurements were taken. After 5 min, the reader was paused to add the indicated concentrations of fluorescent ligand, before measurements were continued. To set non-specific binding for kinetic experiments, the indicated competing ligand was added 5 min before the addition of the fluorescent ligand."}, "[2]": {"molecular_target": "FFA1-Nluc (Homo sapiens, UniProt O14842)", "sequence (O14842 whole entry)": "as above", "assay": "DISCo-BRET (endpoint, spectra scan, kinetics) with TUG-2591 and TUG-2597 at C terminal Nluc tagged FFA1", "assay_type": "binding", "parameters": "expressed in transfected cells", "conditions": "for Specific BRET (540/450), % of control: Figure 4Bi, single replicate values (technical duplicate); for Specific BRET (690/540), % of control: technical duplicate", "experimental": "Nluc-FFA1 or FFA1-Nluc Flp-In T-REx 293 cells were plated at 50,000 cells per well in poly-D-lysine coated white 96-well plates. Cells were cultured for 24 h in the plate before medium was replaced with medium containing 100 ng/mL of doxycycline to induce receptor expression. After culturing for a further 24 h, culture medium was removed, cells washed with HBSS and incubated in HBSS for 30 min. For all DISCo-BRET formats Nano-Glo substrate was then added at a 1:800 final dilution and cells incubated for 10 min. Following substrate addition experimental set up different among the three formats: endpoint, spectra scan, and kinetics.\nFor endpoint experiments all fluorescent and unlabelled ligands were added to the cells and incubated for 5 min at 37 °C. Luminescent emission was then measured using a CLARIOstar microplate reader with monochromator set at 450–60 nm (Nluc), 540−60 nm (NBD) and 690–100 nm (SulfoCy5). BRET ratios were then calculated as either SulfoCy5 emission divided by NBD emission, SulfoCy5 emission divided by Nluc emission, or NBD emission divided by Nluc emission.\nFor spectra scan experiments all indicated fluorescent and unlabelled ligands were added to the cells and cells incubated for 5 min at 37 °C. Luminescence emissions were then measured from each well of the plate from 440 nm – 740 nm with a 5 nm resolution using a CLARIOstar microplate. Luminescent emission spectra were then normalised as a percentage of the maximal Nluc emission peak ( ~ 460 nm), then subtracted with the spectrum obtained in the presence of high concentrations of ligands competing for both binding sites to obtain specific BRET binding spectra.\nIn kinetic DISCo-BRET experiments plates were placed directly in a CLARIOstar plate reader set to 25 °C 10 min after Nano-Glo substrate addition. Luminescent measurements were then taken with three sequential measurements per well with the monochromator set to 450–60 nm (Nluc), 540 - 60 nm (NBD) and 690–100 nm (SulfoCy5) taken in 20 or 30 s intervals. After 5 min of background measurements, the plate reader was paused for the first indicated fluorescent ligand(s) addition, before immediately returning the plate to the reader to continue luminescence readings. After 5 min, the reader was again paused to add the second fluorescent ligand (association assays) or competing ligand(s) (dissociation assays), before immediately continuing the measurements for the indicated time. Non-specific control binding was obtained by adding the indicated competing ligand(s) 5 min prior to the addition of the first fluorescent ligand."}}, "note": "Values joined by “and” are separate entries in the source; they are usually repeats but may differ in a detail not shown here. Equal entries are not always repeated.", "data": [{"smiles": "Cc1cc(OCCCS(C)(=O)=O)cc(C)c1-c1cccc(COc2ccc3c(c2)OC[C@H]3CC(=O)O)c1", "note": "[TAK-875]", "values": [{"measurement": "Specific BRET (690/450)%", "setting": "[1]; log[Ligand] -6", "result": "10.18% and 12.73% and 3.99% and 7.92% and 4.81% and 6.50%"}, {"measurement": "Specific BRET (690/450)%", "setting": "[1]; log[Ligand] -6.5", "result": "32.21% and 35.14% and 21.21% and 27.75% and 22.79% and 22.32%"}, {"measurement": "Specific BRET (690/450)%", "setting": "[1]; log[Ligand] -7", "result": "65.25% and 65.98% and 70.04% and 73.07% and 59.65% and 56.69%"}, {"measurement": "Specific BRET (690/450)%", "setting": "[1]; log[Ligand] -7.5", "result": "85.12% and 83.85% and 95.80% and 94.83% and 87.89% and 88.68%"}, {"measurement": "Specific BRET (690/450)%", "setting": "[1]; log[Ligand] -8", "result": "89.18% and 88.01% and 105.30% and 110.61% and 94.39% and 90.53%"}, {"measurement": "Specific BRET (690/450)%", "setting": "[1]; log[Ligand] -9", "result": "97.11% and 97.99% and 104.48% and 114.53% and 100.63% and 97.67%"}, {"measurement": "Specific BRET (690/450)%", "setting": "[1]; log[Ligand] -10", "result": "87.86% and 92.46% and 110.54% and 109.16% and 102.75% and 97.62%"}, {"measurement": "Specific BRET (690/450)%", "setting": "[1]; log[Ligand] -11", "result": "100.29% and 99.71% and 99.72% and 100.28% and 98.52% and 101.48%"}, {"measurement": "Specific BRET (540/450)%", "setting": "[1]; log[Ligand] -9", "result": "172.87% and 190.47% and 142.88% and 120.34% and 106.26% and 112.65% and 111.64% and 106.85%"}, {"measurement": "Specific BRET (540/450)%", "setting": "[1]; log[Ligand] -10", "result": "149.59% and 142.25% and 115.93% and 128.15% and 104.61% and 106.65% and 101.74% and 108.27%"}, {"measurement": "Specific BRET (540/450)%", "setting": "[1]; log[Ligand] -11", "result": "103.21% and 96.79% and 95.91% and 104.09% and 99.52% and 100.48% and 105.48% and 94.52%"}, {"measurement": "Specific BRET (540/450), % of control", "setting": "[2]; log[Ligand] -6", "result": "467.51 % of control and 353.62 % of control and 390.67 % of control and 390.47 % of control and 245.96 % of control and 264.46 % of control and 322.48 % of control and 320.38 % of control"}, {"measurement": "Specific BRET (540/450), % of control", "setting": "[2]; log[Ligand] -6.5", "result": "416.30 % of control and 439.27 % of control and 347.06 % of control and 353.35 % of control and 259.50 % of control and 260.52 % of control and 247.59 % of control and 261.94 % of control"}, {"measurement": "Specific BRET (540/450), % of control", "setting": "[2]; log[Ligand] -7", "result": "359.13 % of control and 319.17 % of control and 300.41 % of control and 327.99 % of control and 232.12 % of control and 230.66 % of control and 238.32 % of control (2×)"}, {"measurement": "Specific BRET (540/450), % of control", "setting": "[2]; log[Ligand] -7.5", "result": "230.54 % of control and 249.60 % of control and 216.23 % of control and 242.80 % of control and 172.25 % of control and 154.77 % of control and 142.78 % of control and 178.30 % of control"}, {"measurement": "Specific BRET (540/450), % of control", "setting": "[2]; log[Ligand] -8", "result": "168.77 % of control and 177.73 % of control and 170.59 % of control and 182.76 % of control and 139.62 % of control and 128.26 % of control and 117.24 % of control and 129.48 % of control"}, {"measurement": "Specific BRET (540/450), % of control", "setting": "[2]; log[Ligand] -9", "result": "109.76 % of control and 130.42 % of control and 118.05 % of control and 144.22 % of control and 109.32 % of control and 101.46 % of control and 92.91 % of control and 104.81 % of control"}, {"measurement": "Specific BRET (690/540), % of control", "setting": "[2]; log[Ligand] -9", "result": "98.23 % of control"}, {"measurement": "Specific BRET (540/450), % of control", "setting": "[2]; log[Ligand] -10", "result": "110.45 % of control and 140.76 % of control and 99.39 % of control and 126.77 % of control and 105.68 % of control and 97.52 % of control and 91.86 % of control and 108.31 % of control"}, {"measurement": "Specific BRET (690/540), % of control", "setting": "[2]; log[ligand] -8", "result": "82.90 % of control"}, {"measurement": "'bottom' of the IC50 curve, DISCo-BRET NBD/Nluc", "setting": "[2]; percentage of binding obtained in the absence of competing ligand", "result": 360, "unit": "%"}, {"measurement": "'bottom' of the IC50 curve, DISCo-BRET SulfoCy5/NBD", "setting": "[2]; percentage of binding obtained in the absence of competing ligand, 100 nM TUG-2591 and […] TUG-2597", "result": -3.0, "unit": "%"}]}]}
